In patent publication US7786081B2, “Peptide composition” (Pepsyn Ltd., priority 1993, dated 2010):

Tests used:
[1] = known agent, stated drawback; cited from earlier work
[2] = tested on: Human keratinocytes (HatKat); test: Growth of keratinocytes (cell count, Coulter counter); format: cell-based
Experimental: Human keratinocytes (HatKat) were grown in keratinocyte growth medium (TCS Cellworks Ltd.) until 20% confluence. Then, in the same medium, the keratinocytes were grown for three days with 0.5% foetal calf serum (FCS), at which point the cells were counted in a Coulter® counter. The cell numbers obtained are set out in Table 3 below.

| Compound | erythema at the site of application [1] | increase in the growth of keratinocytes ([2]; 10 ng/ml EGF vs medium with 0.5% FCS) | Number of cells ([2]; Medium with 0.5% FCS + 10 ng/ml EGF, three days, medium alone 23,777) |
| --- | --- | --- | --- |
| CC1=C(/C=C/C(C)=C/C=C/C(C)=C/C(=O)O)C(C)(C)CCC1 [all-trans retinoic acid] | produces marked erythema |  |  |
| EGF: epidermal growth factor, comparator in the keratinocyte growth test (NSDSECPLSHDGYCLHDGVCMYIEALDKYACNCVVGYIGERCQYRDLKWWELR; UniProt P01133 971-1023, looked up) |  | relatively modest increase | 29,356 |
